Results from patent US20250205206A1, “USE OF DEXPRAMIPEXOLE FOR THE TREATMENT OF INADEQUATELY CONTROLLED MODERATE TO SEVERE ASTHMA” (Areteia Therapeutics, Inc., priority 2023, published 2025).
Read-outs that look alike come from different tables or passages of the source.

How the values were obtained:
[1] = tested on: moderate to severe asthma; test: Phase II dose finding study in moderate to severe asthma (EXHALE)
[2] = tested on: subjects with eosinophilic chronic rhinosinusitis with nasal polyps; conditions: cited from earlier work; for total polyp score (TPS), mean value: baseline 5.29
[3] = tested on: Chronic rhinosinusitis with nasal polyps; conditions: in vivo; cited from earlier work
[4] = 150 mg twice daily, 6 month trial
[5] = 150 mg twice daily, 12 subjects with a history of asthma

## CCCN[C@@H]1CCc2nc(N)sc2C1 [dexpramipexole, (6R)-2-amino-4,5,6,7-tetrahydro-6-(propylamino)benzothiazole]
[1]; Phase II, compared with placebo
  safety and tolerability profile: tolerability profile of dexpramipexole in this Phase II study was similar to
[1]; Phase II, moderate to severe asthma
  eosinophils in blood and airways: significant, dose-dependent, and durable reductions
[1]; across the dose groups at various timepoints
  placebo-corrected change from baseline in pre-bronchodilator (pre-BD) FEV1: clinically meaningful, placebo-corrected, change from baseline in pre-
[2]; 150 mg twice daily, 3 months
  total polyp score (TPS), mean value: 5.50
[2]; [4]
  SNOT-22 (rhinosinusitis symptoms): not improved
  Sniffin Sticks olfaction test: not improved
  sinus CT score: not improved
[2]; 150 mg twice daily, 6 months
  total polyp score (TPS), mean value: 5.42
[2]; [5]
  ACQ6 value: unchanged
  FEV1 value: unchanged
[2]; dexpramipexole 150 mg twice daily, after 6 months, 16 subjects
  lowering of the AEC (blood absolute eosinophil count): 94%

B1: mepolizumab: eosinophil lowering drug; monoclonal antibody administered subcutaneously for asthma (antibody, chains of the INN, looked up, V domains shown)
VH: QVTLRESGPALVKPTQTLTLTCTVSGFSLTSYSVHWVRQPPGKGLEWLGVIWASGGTDYNSALMSRLSISKDTSRNQVVLTMTNMDPVDTATYYCARDPPSSLLRLDYWGRGTPVTVSS
VL: DIVMTQSPDSLAVSLGERATINCKSSQSLLNSGNQKNYLAWYQQKPGQPPKLLIYGASTRESGVPDRFSGSGSGTDFTLTISSLQAEDVAVYYCQNVHSFPFTFGGGTKLEIK
[3]
  efficacy in chronic rhinosinusitis with nasal polyps: have shown efficacy
